Series [1] relates to Mus musculus. Put plainly: Reduction in serum uric acid level in acute hyperuricemia state Kunming mouse model assessed as SUA level at 2 mg/kg, po (reference value: 1037 +/- 106.59 uM). The series is classed as functional.
In series [2] the target is T1, Solute carrier family 2, facilitated glucose transporter member 9 (Mus musculus) (UniProt Q3T9X0).
T1 sequence (whole entry): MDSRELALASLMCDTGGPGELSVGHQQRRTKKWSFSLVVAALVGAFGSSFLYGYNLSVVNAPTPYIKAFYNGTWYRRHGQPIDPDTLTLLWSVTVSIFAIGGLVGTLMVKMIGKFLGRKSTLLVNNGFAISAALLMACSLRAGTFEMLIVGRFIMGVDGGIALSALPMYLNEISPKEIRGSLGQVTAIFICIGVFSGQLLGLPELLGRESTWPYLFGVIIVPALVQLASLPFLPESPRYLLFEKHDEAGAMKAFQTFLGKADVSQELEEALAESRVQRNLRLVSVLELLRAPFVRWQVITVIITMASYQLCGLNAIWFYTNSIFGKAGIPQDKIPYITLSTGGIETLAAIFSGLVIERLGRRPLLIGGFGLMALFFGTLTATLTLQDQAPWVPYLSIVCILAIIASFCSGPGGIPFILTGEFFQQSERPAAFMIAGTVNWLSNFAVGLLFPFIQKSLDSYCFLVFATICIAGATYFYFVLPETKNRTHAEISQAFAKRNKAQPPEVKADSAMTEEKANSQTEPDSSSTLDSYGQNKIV
The series can be described thus: Inhibition of mouse EGFP-tagged GLUT9 expressed in HEK293T cells assessed as inhibition rate by measuring relative current at 5 uM by patch clamp electrophysiological analysis relative to control. It is filed as cell-based. On the set-up: scale not given: the % may be the effect or the level left. (In general: The patch-clamp technique gives a direct electrical read-out from membranes.)

The species named for series [3] is Mus musculus. The series can be described thus: Reduction in serum uric acid level in acute hyperuricemia state Kunming mouse model assessed as SUA level. The series is classed as functional.
Series [4] is filed under the species Mus musculus. Put plainly: Reduction in serum uric acid level in acute hyperuricemia state Kunming mouse model assessed as SUA level by measuring decrease ratio relative to control. On the set-up: concentration or dose not given beside the values. The series is classed as functional.
A short description of series [5]: Subacute toxicity in Kunming mouse assessed as abnormal behavior at 25 mg/kg, po administered every other day for 14 days. It is filed as organism-based. The note with it: in vivo, 336 h, time 14 day.
Series [6] is filed under the species Mus musculus. The series can be described thus: Reduction in serum uric acid level in chronic hyperuricemia state Kunming mouse model assessed as SUA level (reference value: 660.33 +/- 103.57 uM). The series is classed as functional.
Series [7] deals with Rattus norvegicus. Put plainly: Reduction in serum uric acid level in po dosed acute hyperuricemia state Sprague-Dawley rat model assessed as SUA level (reference value: 955.20 +/- 85.56 uM). It is filed as functional.
A short description of series [8]: Toxicity in Kunming female mouse assessed as renal injury at 100 mg/kg, po administered every other day for 14 days by H and E staining based assay. The note with it: in vivo, 336 h, time 14 day. It is filed as organism-based.
Series [9] in a line: Acute toxicity in Kunming mouse assessed as fatality rate at 1000 mg/kg, po administered as single dose monitored for 7 days. It is filed as organism-based. To be noted: Kunming, in vivo, time 7 day, read-out: Activity.
Series [10] deals with Mus musculus. The series can be described thus: Reduction in serum uric acid level in acute hyperuricemia state Kunming mouse model assessed as SUA level by measuring decrease ratio at 2 mg/kg, po relative to control. The series is classed as functional. On the set-up: scale not given: the % may be the effect or the level left.
The test system of series [11] is Rattus norvegicus. Put plainly: Reduction in serum uric acid level in po dosed acute hyperuricemia state Sprague-Dawley rat model assessed as SUA level by measuring decrease ratio relative to control. The series is classed as functional. Set-up: scale not given: the % may be the effect or the level left.
Series [12] is described as follows: Toxicity in Kunming female mouse assessed as balloon like degeneration of liver at 100 mg/kg, po administered every other day for 14 days by H and E staining based assay. It is filed as organism-based. The note with it: in vivo, 336 h, time 14 day.
Series [13] has as its target Xanthine dehydrogenase/oxidase (Bos taurus, UniProt P80457). The series can be described thus: Inhibition of bovine XOD using xanthine as substrate assessed as inhibitory ratio at 10 uM by spectrophotometric analysis relative to control. The note with it: cattle.
Series [14] is filed under the species Mus musculus. The series can be described thus: Reduction in serum uric acid level in chronic hyperuricemia state Kunming mouse model assessed as SUA level by measuring decrease ratio relative to control. The series is classed as functional. On the set-up: scale not given: the % may be the effect or the level left.
Series [15] in a line: Toxicity in Kunming female mouse assessed as coagulation necrosis of hepatocyte at 100 mg/kg, po administered every other day for 14 days by H and E staining based assay. The series is classed as organism-based. The note with it: 336 h, time 14 day.
The nature of series [16]: Acute toxicity in Kunming mouse assessed as fatality rate at 500 mg/kg, po administered as single dose monitored for 7 days. The series is classed as organism-based. The note with it: Kunming, in vivo, time 7 day, read-out: Activity.

The source of these data is ChEMBL document CHEMBL5528083, “Discovery of a Novel Thienopyrimidine Compound as a Urate Transporter 1 and Glucose Transporter 9 Dual Inhibitor with Improved Efficacy and Favorable Druggability” (J Med Chem, 2024).

Xanthine dehydrogenase/oxidase, sequence (P80457 whole entry): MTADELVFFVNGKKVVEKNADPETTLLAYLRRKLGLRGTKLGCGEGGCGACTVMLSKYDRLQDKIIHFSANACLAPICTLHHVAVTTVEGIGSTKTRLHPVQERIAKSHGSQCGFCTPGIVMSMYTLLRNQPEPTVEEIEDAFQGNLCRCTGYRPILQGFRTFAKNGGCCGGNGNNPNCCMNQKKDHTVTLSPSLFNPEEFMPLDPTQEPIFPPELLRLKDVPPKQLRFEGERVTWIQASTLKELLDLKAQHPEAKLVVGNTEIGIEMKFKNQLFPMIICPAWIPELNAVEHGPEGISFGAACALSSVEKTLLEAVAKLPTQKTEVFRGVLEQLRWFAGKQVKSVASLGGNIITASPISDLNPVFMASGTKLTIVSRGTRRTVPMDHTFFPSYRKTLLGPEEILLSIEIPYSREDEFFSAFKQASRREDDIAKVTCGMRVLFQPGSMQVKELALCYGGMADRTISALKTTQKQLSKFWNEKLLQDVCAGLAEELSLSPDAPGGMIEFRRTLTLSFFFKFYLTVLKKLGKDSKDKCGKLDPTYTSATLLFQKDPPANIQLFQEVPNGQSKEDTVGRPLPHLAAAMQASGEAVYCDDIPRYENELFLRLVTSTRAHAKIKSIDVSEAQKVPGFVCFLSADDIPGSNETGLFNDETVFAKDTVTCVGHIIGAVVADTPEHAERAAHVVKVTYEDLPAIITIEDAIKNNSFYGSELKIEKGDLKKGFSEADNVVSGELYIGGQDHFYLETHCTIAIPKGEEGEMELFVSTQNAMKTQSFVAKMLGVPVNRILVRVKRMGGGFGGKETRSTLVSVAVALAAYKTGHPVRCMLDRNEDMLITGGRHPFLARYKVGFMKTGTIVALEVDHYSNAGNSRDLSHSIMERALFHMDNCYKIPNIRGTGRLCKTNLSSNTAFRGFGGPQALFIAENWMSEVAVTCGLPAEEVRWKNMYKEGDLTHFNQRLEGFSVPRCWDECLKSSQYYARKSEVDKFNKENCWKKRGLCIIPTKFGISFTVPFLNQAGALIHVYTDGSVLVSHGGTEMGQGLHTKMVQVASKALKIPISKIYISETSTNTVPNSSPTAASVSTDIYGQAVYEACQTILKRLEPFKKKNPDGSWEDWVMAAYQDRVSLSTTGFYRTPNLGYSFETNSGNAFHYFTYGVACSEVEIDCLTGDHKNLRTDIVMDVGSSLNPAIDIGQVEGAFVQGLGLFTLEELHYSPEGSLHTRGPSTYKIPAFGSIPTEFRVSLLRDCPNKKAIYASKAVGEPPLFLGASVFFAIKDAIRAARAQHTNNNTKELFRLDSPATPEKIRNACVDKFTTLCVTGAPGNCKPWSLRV

Turning to `CC(Sc1nc2ncccc2n1-c1ccc(C2CC2)c2ccccc12)C(=O)O` (centres undefined), in the series on Mus musculus [1], the Activity is 706.25 µM.

Turning to `CCc1oc2ccccc2c1C(=O)c1cc(Br)c(O)c(Br)c1` [BENZBROMARONE], the Activity in [2] is 74.7%; in the series filed under Mus musculus [3] it was 753.2 µM; in the series filed under Mus musculus [4] it was 37.3%.

A word on the inhibition: it is how much of the control response was suppressed. For `O=C(O)CSc1nnc(Br)n1-c1ccc(C2CC2)c2ccccc12`, the Activity result was “Non-Toxic” in series [5]; 476 µM in the series listed under Mus musculus [6]; 706.25 µM in the series with Mus musculus [1]; 685.6 µM in the series with Rattus norvegicus [7]; “Toxic” in series [8]; 35.56% in the series on Mus musculus [10]. The Activity was 841.2 µM in the series filed under Mus musculus [3]; 31.77% in the series with Rattus norvegicus [11]; “Toxic” in [12]; 28.5% in the series listed under Mus musculus [4]; 33.56% in the series filed under Mus musculus [14]; “Toxic” in series [15]. Also, the mortality at 168 h in [9] is 60%; in series [16] it was 20%. Moreover, the inhibition at 10 µM in [13] was 5.72%.
